Results reported in publication PMC12748266, “Testing antimicrobial peptides inhibiting protein synthesis in living E. coli and K. pneumoniae using bio-orthogonal non-canonical amino-acid tagging” (Frontiers in Microbiology, 2025).
In brackets after ≈: the same amount, converted by molar mass. Like-named read-outs stand apart in the source and are kept apart here. Marks after values point to notes of the source that are not given here.

Tests used:
[1] = tested on: E. coli ATCC 25922; assay: Cell membrane permeabilization, propidium iodide flow cytometry; type: cell-based, Escherichia coli; details: for Membrane permeabilization (% PI +cells): compound at its MIC, 40 min, 5 × 10^6 CFU/mL, supplemented M9, mean of n = 3
Experimental: (§1) Membrane permeabilization of bacteria was then assessed by incubating bacteria at 37 °C, in a final volume of 1 mL, with varying concentrations of each peptide or antibiotic used for the BONCAT assay. 5 min before the ending of the selected incubation time (40 min), propidium iodide probe was added to the samples to a final concentration of 10 μg/mL before analysis using a flow cytometer. A positive control consisted of E. coli cells dehydrated with ethanol (as described above), while untreated cells were used as negative control. The fluorescence of untreated cells was used to establish the gating for positive PI-stained cells. Fixed bacterial cells, subjected to the click chemistry reaction to link the Alexa Fluor azide 488 probe, were analysed by flow cytometry and, among the gates-selected ones, only those that tested positive for Propidium Iodide, and thus permeabilized, were considered for the calculation of the mean fluorescence intensity (MFI) of the Alexa Fluor azide 488.
(§2) Samples were analyzed by an Attune NxT® (ThermoFisher) equipped with a blue laser (488 nm) and photomultiplier tubes (PMTs) BL1 (525/50) and BL3 (695/40) to collect fluorescence. All parameters were set in logarithmic scale and the signals were recorded as Area. Forward scattering (FSC) was set to 300 mV, side scattering (SSC) to 350 mV and thresholds to 0.2 for FSC and 0.5 for SSC. The compensation matrix was performed according to the tool software. Hierarchical gates and acquisition flow rate (200 μL/min) were set to avoid coincident events. The files were saved as FCS 3.1 and analysed by FCS Express De Novo software v7. Flow cytometry data are presented as means ± SD from three independent experiments (n = 3).

[2] = tested on: K. pneumoniae ATCC 700603; assay: as above; type: cell-based, Klebsiella pneumoniae; details: compound at its MIC, 40 min, 5 × 10^6 CFU/mL, supplemented M9; mean of n = 3
Experimental: as §1, with “An overnight culture of E. coli ATCC 25922, or of K. pneumoniae ATCC 700603, prepared as described above, was diluted to a final concentration of 5 × 10^6 CFU/mL and allowed to adjust for 30 min at 37 °C under shaking. Membrane” for “Membrane”
as §2

[3] = tested on: E. coli ATCC 25922; assay: microbe, parasite or virus in culture; type: cell-based, Escherichia coli; details: for MIC: 18 h, 37 °C, mode of at least three experiments
Experimental: […] Each peptide, diluted at a starting concentration of 128 μM in supplemented M9 medium was added to the first column of wells of a 96-well round-bottom microplate (Sarstedt, Milan, Italy). Serially two-fold dilution (1:1) were performed across subsequent wells to a final volume of 50 μL. 50 μL of bacterial suspension (1 × 10^7 CFU/mL) were then added to each well, to a final bacterial concentration in each well to 5 × 10^6 CFU/mL per well. Untreated bacterial culture was used as growth control, while 100 μL of uninoculated supplemented M9 medium was used to verify the sterility of the medium. The plates were sealed with parafilm to minimize evaporation and incubated at 37 °C for 18 h. The minimum inhibitory concentration (MIC) was visually determined as the lowest peptide concentration in a well with no visible bacterial growth. Data are reported as the mode of at least three independent experiments.

[4] = tested on: E. coli ATCC 25922; assay: Post-antibiotic effect (PAE), growth kinetics after washout; type: cell-based, Escherichia coli; details: 30 min treatment at MIC, OD600 every hour for 18 h in MHB, mean ± SD, n = 3
Experimental: An overnight culture of E. coli ATCC 25922, prepared as described above, was diluted to a final concentration of 5 × 10^6 CFU/mL and then incubated at 37 °C for 30 min in the presence or absence of each peptide or antibiotic at various concentrations, with a final volume of 1 mL. To measure the post-antibiotic effect (PAE) of antimicrobials, the compounds were removed from the supernatant by centrifugation (16,000 × g for 5 min) and bacteria were washed and resuspended in 1 mL of fresh supplemented MHB medium, to promote faster growth visible as increased absorbance. 200 μL of each sample was then transferred to a 96-well round-bottom microplate (Sarstedt, Milan, Italy), which was then placed in a Nanoquant Infinite-M200Pro plate reader with stable temperature at 37 °C. Each sample was surrounded by water-filled wells to reduce its own evaporation. Optical density at 600 nm was then recorded for each sample every hour for up to 18 h. PAE was calculated according to [Holfeld et al. (2018)] as the difference between the time needed for a cell culture incubated with an antibiotic substance to reach half-maximum absorbance of the control culture and the time that the control culture needed to reach half-maximum absorbance of the stationary phase. According to this definition, the PAE of each compound (expressed as time) was calculated based on the OD₆₀₀ value of its respective replicate, which corresponded to half of the maximum absorbance reached by the control culture in the stationary phase (at 18 h). The mean PAE values (PAE in hours) of each compound, were obtained by averaging the times from the three independent experiments.

[5] = tested on: E. coli ATCC 25922; assay: BONCAT: HPG incorporation into newly synthesized proteins, flow cytometry; type: cell-based, Escherichia coli; details: compound at MIC; for Fluorescence Intensity (% of Control): 10 min pre-incubation then 30 min HPG, untreated = 100%, mean, n ≥ 3; for Decrease in fluorescence compared to untreated bacteria: 40 min total incubation (10 min + 30 min HPG)
Experimental: (§3) We used a modified protocol from [Lindivat et al. (2020)]. Briefly, overnight cultures of E. coli ATCC 25922 or K. pneumoniae ATCC 700603, prepared as described above, were diluted to a final concentration of 5×10^6 CFU/mL and allowed to adjust for 30 min at 37 °C. The culture was then incubated at 37 °C in the dark for 10 or 30 min in the presence or absence of each peptide or antibiotic at various concentrations, with a final volume of 1 mL. At this point, only in certain specified experimental assays, the compounds were removed from the supernatant by centrifugation (16,000 × g for 5 min) and bacteria were washed and resuspended in fresh supplemented M9 medium. Then, 32 μL of a 500 μM homopropargylglycine (HPG) solution were added to each sample, resulting in a final concentration of 16 μM in a finale volume of 1 mL. Also included in each assay were two untreated controls containing only bacteria and bacteria treated with 16 μM HPG alone, respectively. All samples were then incubated at 37 °C in the dark for 30 min. After incubation, samples were washed once with 1X filtered Phosphate Buffered Saline (PBS) (centrifuged at 16,000 x g for 5 min) and resuspended in PBS. After washing, samples were fixed with formaldehyde (Sigma Aldrich, USA) to a final concentration of 3% in 1 mL for 1 h at 25 °C. Subsequently, the samples were centrifuged at 16,000 x g for 5 min and resuspended in 1 mL of PBS. If not analysed immediately, the fixed samples were stored at 4 °C prior to performing the click chemistry reaction. Samples were centrifugated at 16,000 x g for 5 min and bacteria cells were dehydrated by ethanol that was added sequentially to achieve a final concentration of 50% (v/v) (3 min of incubation), 80% (v/v) (3 min of incubation), and 95% (v/v) (3 min of incubation). After dehydration, the samples were centrifugated (16,000 × g, 5 min) and resuspended in PBS. For cell analysis by SDS-PAGE, the following variations were implemented: bacterial cells were diluted in supplemented M9 medium to a final density of ~ 1 × 10^9 CFU/mL, and HPG was added to the samples at a final concentration of 160 μM. Bacteria were incubated with HPG for 0, 15, 30, 60, or 120 min at 37 °C in the dark.
(§4) The click reaction was carried out according to [Rostovtsev et al. (2002)]. 15 μL of a pre-mix solution (prepared as described above) were added to each sample containing fixed bacteria that had incorporated HPG (30 μL of pre-mix solution in case of samples prepared for SDS-PAGE analysis), resulting in the following final concentrations in each sample: 0.1 mM copper sulfate, 0.5 mM Tris (3-hydroxypropyltriazolylmethyl)amine (THPTA), and 2.5 μM Alexa Fluor azide 488. Additionally, 50 μL of freshly prepared 100 mM sodium ascorbate and 50 μL of 100 mM aminoguanidine were added (100 μL in case of samples prepared for SDS-PAGE analysis), bringing the final volume to 1 mL. The samples were gently inverted once to mix and incubated for 30 min in the dark at 25 °C. Finally, each sample was washed with PBS once (centrifuged at 16,000 × g for 5 min) and resuspended in 1 mL PBS.
An overnight culture of E. coli ATCC 25922, or of K. pneumoniae ATCC 700603, prepared as described above, was diluted to a final concentration of 5 × 10^6 CFU/mL and allowed to adjust for 30 min at 37 °C under shaking. Membrane permeabilization of bacteria was then assessed by incubating bacteria at 37 °C, in a final volume of 1 mL, with varying concentrations of each peptide or antibiotic used for the BONCAT assay. 5 min before the ending of the selected incubation time (40 min), propidium iodide probe was added to the samples to a final concentration of 10 μg/mL before analysis using a flow cytometer. A positive control consisted of E. coli cells dehydrated with ethanol (as described above), while untreated cells were used as negative control. The fluorescence of untreated cells was used to establish the gating for positive PI-stained cells. […]

[6] = tested on: K. pneumoniae ATCC 700603; assay: microbe, parasite or virus in culture; type: cell-based, Klebsiella pneumoniae; details: for MIC: 18 h, 37 °C, mode of at least three experiments
Experimental: […] […] Serially two-fold dilution (1:1) were performed across subsequent wells to a final volume of 50 μL. […] […] The plates were sealed with parafilm to minimize evaporation and incubated at 37 °C for 18 h. The minimum inhibitory concentration (MIC) was visually determined as the lowest peptide concentration in a well with no visible bacterial growth. Data are reported as the mode of at least three independent experiments.

[7] = tested on: K. pneumoniae ATCC 700603; assay: BONCAT: HPG incorporation into newly synthesized proteins, flow cytometry; type: cell-based, Klebsiella pneumoniae; details: compound at MIC, 10 min pre-incubation then 30 min HPG; untreated = 100%; mean, n ≥ 3
Experimental: as §3
as §4, with “Finally, each sample was washed with PBS once (centrifuged at 16,000 × g for 5 min) and resuspended in 1 mL PBS.” left out
An overnight culture of E. coli ATCC 25922, or of K. pneumoniae ATCC 700603, prepared as described above, was diluted to a final concentration of 5 × 10^6 CFU/mL and allowed to adjust for 30 min at 37 °C under shaking. Membrane permeabilization of bacteria was then assessed by incubating bacteria at 37 °C, in a final volume of 1 mL, with varying concentrations of each peptide or antibiotic used for the BONCAT assay. […] The fluorescence of untreated cells was used to establish the gating for positive PI-stained cells. […]

[8] = Mueller Hinton, 2,5x10^5 CFU/mL

Molecule: CCO [Ethanol]
- Membrane permeabilization (% PI +cells) [1]: 78%
- Membrane permeabilization (% PI +cells) ([1]; listed as EtOH): 78%
- Membrane permeabilization (% PI +cells) [2]: 96%

Molecule: CCn1cc(C(=O)O)c(=O)c2ccc(C)nc21 [NDX, Nalidixic Acid]
- Membrane permeabilization (% PI +cells) [1]: <1%
- MIC ([3]; Escherichia coli, ATCC25922, 18 h, supplemented M9 medium, 5 × 10^6 CFU/mL, visual, read-out: MIC): 16 µM (≈ 3.72 µg/mL)
- PAE [4]: 0.8 ± 0.4 h
- Fluorescence Intensity (% of Control) [5]: 107 % of Control
- Decrease in fluorescence compared to untreated bacteria [5]: did not affect fluorescence intensity

Molecule: CN(C)[C@@H]1C(O)=C(C(N)=O)C(=O)[C@@]2(O)C(O)=C3C(=O)c4c(O)cccc4[C@@](C)(O)[C@H]3C[C@@H]12 [TET, tetracycline]
- Membrane permeabilization (% PI +cells) [2]: <1%
- MIC ([6]; Klebsiella pneumoniae, ATCC700603, supplemented M9 medium, 5 × 10^6 CFU/mL, visual): 32 µM (≈ 14.2 µg/mL)
- Fluorescence Intensity (% of Control) [7]: 37 % of Control

Molecule: Colistin
- Permeabilized cells (PI+) ([1]; colistin 0,5 µM (MIC) at 2,5x10^5 CFU/mL, 40 minutes of incubation): around 50%
- Membrane permeabilization (% PI +cells) [1]: 1%
- Membrane permeabilization (% PI +cells) ([1]; listed as Colistin): 1%
- Membrane permeabilization (% PI +cells) ([1]; listed as colistin): no membrane permeabilization
- Fold increase in MIC on 20-fold increase in cell density ([3]; MHB, 5×10^6 vs 2,5×10^5 CFU/well): 4-8 fold
- MIC [3, 8]: 0,5 * µM
- MIC ([3]; Mueller Hinton, 5x10^6 CFU/mL, read-out: MIC): 4 µM
- Fold increase in MIC in M9 medium compared to MHB ([3]; same bacterial concentration): 2-4 fold
- MIC ([3]; supplemented M9 medium, 5 × 10^6 CFU/mL, visual, read-out: MIC): 16 µM
- MIC [6, 8]: 1 µM
- Fold increase in MIC, BONCAT conditions vs standard conditions ([6]; supplemented M9 5×10^6 CFU/well vs MHB 2,5×10^5 CFU/well): 16 fold
- MIC ([6]; supplemented M9 medium, 5 × 10^6 CFU/mL, visual): 16 µM
- Fluorescence Intensity (% of Control) [5]: 87 % of Control
- Decrease in fluorescence compared to untreated bacteria [5]: nor decreased bacterial fluorescence
